Like-named read-outs stand apart in the source and are kept apart here.
Key:
Diabrotica balteata = Diabrotica balteata spray test; assay type: in vivo; settings: application rate 160 μg/well, wheat grains with beetle larvae, after 7 days
Protocol: Diabrotica balteata—Spray Test Solvent: 78 parts by weight of acetone • • 1.5 parts by weight of dimethylformamide Emulsifier: alkylaryl polyglycol ether
(§1) To produce a suitable active ingredient formulation, 1 part by weight of active ingredient is dissolved with the stated parts by weight of solvent and made up with water containing an emulsifier concentration of 1000 ppm until the desired concentration is attained. To produce further test concentrations, the formulation is diluted with emulsifier-containing water.
Pre-swollen wheat grains (Triticum aestivum) are incubated in a multiwell plate filled with agar and a little water for one day (5 seed grains per cavity). The germinated wheat grains are sprayed with an active ingredient formulation of the desired concentration. Subsequently, each cavity is infected with 10-20 beetle larvae of Diabrotica balteata.
After 7 days, the efficacy in % is determined. 100% means that all wheat plants have grown as in the untreated, uninfected control; 0% means that no wheat plant has grown.

[1] = log P by HPLC on reversed-phase column (EEC directive 79/831 Annex V.A8); assay type: physicochemical; settings: for log p: HPLC on reversed-phase column (footnote a); for log p a): HPLC on reversed-phase column
Procedure, shortened: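 Determined per EEC directive 79/831 Annex V.A8 by HPLC on a reversed-phase C18 column at 43° C.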

Myzus persicae [2] = test: Myzus persicae oral test; assay type: in vivo; settings: application rate 20 ppm, oral uptake through parafilm, after 5 days
Procedure, shortened: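 Compound dissolved in acetone, diluted with water, then mixed into IPL41 insect medium with sugar in microtitre plates under parafilm. Mixed-population green peach aphids fed through the membrane; % mortality scored after 5 days (100% = all killed).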

Myzus persicae [3] = test: Myzus persicae spray test (bell pepper plants); assay type: in vivo; settings: application rate 100 ppm, after 6 days
Protocol: Myzus persicae—Spray Test Solvent: 14 parts by weight of dimethylformamide Emulsifier: alkylaryl polyglycol ether
as §1, with “water. If the addition of ammonium salts or/and penetrants is required, these are each added in a concentration of 1000 ppm to the formulation solution.” for “water.”
Bell pepper plants (Capsicum annuum) severely infested with the green peach aphid (Myzus persicae) are treated by spraying with the active ingredient formulation in the desired concentration.
After 6 days, the kill in % is determined. 100% means that all of the aphids have been killed; 0% means that none of the aphids have been killed.

Lucilia cuprina = Lucilia cuprina test; assay type: in vivo; settings: application rate 100 ppm, L1 larvae, after 2 days
Protocol: Lucilia cuprina Test Solvent: dimethyl sulphoxide
To produce a suitable active ingredient formulation, 10 mg of active ingredient are mixed with 0.5 ml of dimethyl sulphoxide, and the concentrate is diluted with water to the desired concentration.
About 20 L1 larvae of the Australian sheep blowfly (Lucilia cuprina) are transferred into a test vessel containing minced horsemeat and the active ingredient formulation of the desired concentration.
After 2 days, the kill in % is determined. 100% means that all the larvae have been killed; 0% means that no larvae have been killed.

Myzus persicae [4] = test: Myzus persicae spray test (Chinese cabbage leaf discs); assay type: in vivo; settings: application rate 500 g/ha, after 6 days
Protocol: Myzus persicae—Spray Test Solvent: 78 parts by weight of acetone • • 1.5 parts by weight of dimethylformamide Emulsifier: alkylaryl polyglycol ether
as §1
Discs of Chinese cabbage leaves (Brassica pekinensis) infested by all stages of the green peach aphid (Myzus persicae) are sprayed with an active ingredient formulation of the desired concentration.
After 6 days, the efficacy in % is determined. 100% means that all the aphids have been killed; 0% means that no aphids have been killed.

Boophilus microplus = Boophilus microplus injection test; assay type: in vivo; settings: application rate 20 μg/animal, assessed after 7 days by laying of fertile eggs
Protocol: Boophilus microplus—Injection Test Solvent: dimethyl sulphoxide
To produce a suitable active ingredient formulation, 10 mg of active ingredient are mixed with 0.5 ml of solvent and the concentrate is diluted with solvent to the desired concentration.
1 μl of the active ingredient solution is injected into the abdomen of 5 engorged adult female cattle ticks (Boophilus microplus). The animals are transferred into dishes and kept in a climate-controlled room.
Efficacy is assessed after 7 days by laying of fertile eggs. Eggs which are not visibly fertile are stored in a climate-controlled cabinet until the larvae hatch after about 42 days. An efficacy of 100% means that none of the ticks has laid any fertile eggs; 0% means that all the eggs are fertile.

Row | SMILES | log p a) [1] | efficacy (Diabrotica balteata) [%] | log p [1] | efficacy (Myzus persicae [2]) [%] | efficacy (kill in %) (Myzus persicae [3]) [%] | efficacy (Myzus persicae [4]) [%] | other results
1 | O=C(Cn1cc(C(F)(F)F)cn1)c1c([O-])n(Cc2cnc(Cl)s2)c2cccc[n+]12 [Example I-1-045] | – | 80 | 2.37 | 100 | 95 | – | –
2 | COCCOCC(=O)c1c([O-])n(Cc2cnc(Cl)s2)c2cccc[n+]12 [Example I-1-087] | – | 100 | 1.38 | 100 | – | 100 | efficacy (kill in %) (Lucilia cuprina): 100%
3 | O=C(NC1CC1)c1c([O-])n(Cc2cncnc2)c2cccc[n+]12 [Example I-1-152] | – | – | 0.84 | 100 | – | 90 | efficacy (Boophilus microplus): 80%
4 | COCC(=O)c1c([O-])n(Cc2cnc(Cl)c(Cl)c2)c2cccc[n+]12 [Example I-1-179] | – | – | 1.66 | 100 | 95 | – | –
5 | CNC(=O)c1c([O-])n(C(C)c2ccc(Cl)nc2)c2cccc[n+]12 (stereo not shown) [Example I-1-246] | 1.41 | 100 | – | 90 | – | 90 | –
6 | O=C(Cn1cc(Cl)cn1)c1c([O-])n(Cc2ccc(Cl)nc2)c2cccc[n+]12 [Example I-1-004] | – | 100 | 1.96 | 100 | – | 90 | –
7 | COCC(=O)c1c([O-])n(Cc2ccc(Cl)nc2)c2c(C)ccc[n+]12 [Example I-1-193] | – | – | 1.38 | 100 | 100 | – | –
8 | COc1cnn(CC(=O)c2c([O-])n(Cc3cnc(Cl)s3)c3cccc[n+]23)c1 [Example I-1-013] | – | – | 1.58 | 100 | 85 | – | –
9 | CCCNC(=O)c1c([O-])n(Cc2cnc(Cl)s2)c2c(C)ccc[n+]12 [Example I-1-267] | 2.26 | 100 | – | – | – | 90 | –
10 | O=C(COCc1ccccc1)c1c([O-])n(Cc2cnc(Cl)s2)c2cccc[n+]12 [Example I-1-041] | – | 80 | 2.35 | 100 | – | – | –
11 | CCOCC(=O)c1c([O-])n(Cc2ccc(Cl)nc2)c2cccc(C)[n+]12 [Example I-1-114] | – | – | 1.47 | 100 | 85 | – | –
12 | COCC(=O)c1c([O-])n(Cc2ccc(Cl)nc2)c2ccc(F)c[n+]12 [Example I-1-165] | – | – | 1.39 | 100 | – | 90 | efficacy (Boophilus microplus): 100%
13 | O=C(Cn1ccnc1Cl)c1c([O-])n(Cc2cnc(Cl)s2)c2cccc[n+]12 [Example I-1-046] | – | – | 1.44 | 100 | 95 | – | –
14 | CCSCC(=O)c1c([O-])n(Cc2cnc(Cl)s2)c2cccc[n+]12 [Example I-1-028, 1-[(2-Chloro-1,3-thiazol-5-yl)methyl]-3-[(ethylsulphanyl)acetyl]-1H-imidazo[1,2-a]pyridin-4-ium-2-olate] | – | 100 | – | – | – | 90 | chromatographic logP [1]: 1.99; chromatographic logP ([1]; pH 2.7): 1.99; pest or weed control at 20 ppm (Myzus persicae [2]; Myzus persicae, 120 h, read-out: efficacy): 100%
15 | CC(=O)N(CC(=O)c1c([O-])n(Cc2cnc(Cl)s2)c2cccc[n+]12)C1CC1 [Example I-1-062] | – | – | 1.58 | 100 | 95 | – | –
16 | O=C(CO)c1c([O-])n(Cc2cnc(Cl)s2)c2cccc[n+]12 [Example I-1-089] | – | – | 1.14 | 100 | – | – | efficacy (kill in %) (Lucilia cuprina): 90%
17 | O=C(Nc1ccccc1)c1c([O-])n(Cc2cnc(Cl)s2)c2cccc[n+]12 [Example I-1-145] | – | 100 | 2.73 | 100 | 100 | – | efficacy (kill in %) (Lucilia cuprina): 100%
18 | COC(=O)c1c([O-])n(C(C)c2cnc(Cl)s2)c2c(C)ccc[n+]12 (stereo not shown) [Example I-1-287] | 1.68 | 80 | – | 100 | – | – | –
19 | CC(=O)c1c([O-])n(Cc2ccc(Cl)nc2)c2cccc[n+]12 [Example I-1-036] | – | 100 | 1.2 | 100 | – | 90 | –
20 | CC(C)OCC(=O)c1c([O-])n(Cc2ccc(Cl)nc2)c2cccc[n+]12 [Example I-1-016] | – | – | 1.67 | 100 | – | 100 | efficacy (Boophilus microplus): 100%
21 | CSc1cnn(CC(=O)c2c([O-])n(Cc3cnc(Cl)s3)c3cccc[n+]23)c1 [Example I-1-044] | – | – | 1.97 | 100 | 80 | – | –
22 | CC(C)SCC(=O)c1c([O-])n(Cc2cnc(Cl)s2)c2cccc[n+]12 [Example I-1-027] | – | 100 | 2.27 | 100 | – | 100 | efficacy (kill in %) (Lucilia cuprina): 90%
23 | CCOCC(=O)c1c([O-])n(Cc2ccc(Cl)nc2)c2ccc(C)c[n+]12 [Example I-1-113] | – | – | 1.66 | 100 | 95 | – | –
24 | Cc1ccc[n+]2c(C(=O)NC3(C#N)CC3)c([O-])n(Cc3ccc(Cl)nc3)c12 [Example I-1-252] | 1.78 | – | – | 90 | 95 | – | –
25 | Cc1ccc[n+]2c(C(=O)NC3CC3)c([O-])n(Cc3cnc(Cl)s3)c12 [Example I-1-203] | 1.93 | 100 | – | 100 | – | – | –

Further lines, with some results ahead:

Row | log p a) [1] | SMILES | efficacy (Diabrotica balteata) [%] | log p [1] | efficacy (Myzus persicae [2]) [%] | efficacy (kill in %) (Myzus persicae [3]) [%] | efficacy (Myzus persicae [4]) [%] | other results
26 | 2.76 | Cc1ccc[n+]2c(C(=O)Nc3c(F)cccc3F)c([O-])n(C(C)c3cnc(Cl)s3)c12 (stereo not shown) [Example I-1-288] | 100 | – | 100 | – | – | –
27 | 2.82 | O=C(Nc1ccc(F)cc1)c1c([O-])n(Cc2cnc(Cl)s2)c2cccc[n+]12 [Example I-1-227] | 100 | – | 100 | 99 | – | –
28 | 1.97 | Cc1ccc[n+]2c(C(=O)COC(C)C)c([O-])n(Cc3cnc(Cl)s3)c12 [Example I-1-292] | 100 | – | 100 | – | 90 | –
29 | 1.68 | O=C(Nc1ncccc1F)c1c([O-])n(Cc2cnc(Cl)s2)c2cccc[n+]12 [Example I-1-284] | 80 | – | 100 | – | 90 | –
30 | 1.13 | Cc1cnc(Cn2c([O-])c(C(=O)NC3CC3)[n+]3ccccc23)cn1 [Example I-1-217] | – | – | 100 | – | 100 | efficacy (Boophilus microplus): 80%
31 | 2.43 | O=C(Nc1c(F)cccc1F)c1c([O-])n(Cc2cnc(Cl)s2)c2cccc[n+]12 [Example I-1-231] | 100 | – | 100 | 99 | – | –
32 | 2.57 | O=C(Nc1c(F)cccc1Cl)c1c([O-])n(Cc2cnc(Cl)s2)c2cccc[n+]12 [Example I-1-283] | 100 | – | 100 | – | 100 | –
33 | 2.8 | O=C(Nc1c(Cl)cccc1Cl)c1c([O-])n(Cc2cnc(Cl)s2)c2cccc[n+]12 [Example I-1-282] | 100 | – | 100 | – | 90 | –

Source: patent US20180282323A1, “Mesoionic imidazole derivatives as insecticides” (BAYER CROPSCIENCE AKTIENGESELLSCHAFT, priority 2015, published 2018)
